In patent publication US10227312B2, “Glucosylceramide synthase inhibitors for the treatment of diseases” (BIOMARIN PHARMACEUTICAL INC., priority 2015, dated 2019):
pIC50: −log10 of the molar value.

Legend:
K562 cells = assay: K562 Cell-Based Assay; settings: Homo sapiens, NBD-Ceramide, LCMS, read-out: Assay 2 (Cellular Assay; K562 cells) IC50
Experimental: This assay was modified based on the study by Gupta et al. (J. Lipid Res. 2010, 51, 866). K562 cells were seeded into 12-well plates at 3×10^5 cells/well/mL in RPMI-1640 medium with 5% FBS and incubated at 37° C. for 24 h. One μL of a compound described herein at desired concentration (10 mM, 1 mM, 0.1 mM, 0.01 mM, 0.001 mM and 0.0001 mM in DMSO) or DMSO was added into the corresponding well and mixed. Cells were incubated at 37° C. for 4 h. Then 100 μL of RPMI-1640 medium containing 110 μM of NBD-Ceramide, 11% BSA, 5% FBS, and corresponding concentration of a compound described herein was added into each well and mixed. Cells were incubated for additional 0.5 h at 37° C., followed by washing the cells with ice-cold PBS (pH 7.4) twice with centrifugation and resuspended with 50 μL cold PBS+1% Triton X-100. The cell lysate was sonicated for 15 min before adding equal volume of methanol for LCMS analysis. A small aliquot of cell lysate was used to determine protein concentration by BCA assay kit. The HPLC equipment and methods used in Assay 1 were used in this assay as well and IC50's were calculated.

[1] = molecular target: glucosylceramide synthase (GCS) (Canis lupus familiaris, UniProt A0A8I3MXG6); assay: GCS Enzymatic Assay (MDCK lysates); assay type: biochemical, canine; settings: MDCK cell lysate, C6-NBD-Ceramide, 37° C. for 1 hour, LC/MS; read-out: Assay 1 (Enzyme Assay; MDCK lysates) IC50
Sequence of glucosylceramide synthase (GCS) (A0A8I3MXG6 1-394): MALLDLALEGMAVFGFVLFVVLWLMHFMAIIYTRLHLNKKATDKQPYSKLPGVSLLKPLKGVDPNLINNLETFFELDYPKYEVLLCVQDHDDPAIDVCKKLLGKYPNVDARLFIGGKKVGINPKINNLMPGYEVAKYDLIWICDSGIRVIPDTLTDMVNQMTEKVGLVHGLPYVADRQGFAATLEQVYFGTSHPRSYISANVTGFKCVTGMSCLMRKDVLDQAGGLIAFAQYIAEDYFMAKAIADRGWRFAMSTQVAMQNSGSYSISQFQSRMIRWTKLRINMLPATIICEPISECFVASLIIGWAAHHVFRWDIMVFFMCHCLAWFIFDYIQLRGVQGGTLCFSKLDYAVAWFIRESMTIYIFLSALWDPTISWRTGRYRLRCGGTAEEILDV
Experimental: Madin-Darby canine kidney (MDCK) cell lysate was prepared using M-PER Mammalian Protein Extraction Reagent (Thermal Scientific) in the presence of a protease inhibitor cocktail (Roche). Protein concentration was determined using BCA assay kit (Pierce). […] 0.1% DMSO was used as mock treatment or control. The reaction was terminated by adding 100 μL acetonitrile solution and subjected to LC/MS analysis.
The quantitative analysis of NBD-Ceramide and glucosylceramide was performed on a Shimadzu ultra-fast liquid chromatography (Shimadzu, Japan) coupled with API 4000 triple quadrupole mass spectrometer (Applied Biosystems, Concord, Ontario, Canada). Sample separation was conducted on a Waters Xbridge™ BEH130 C18, 100 mm×4.6 mm i.d, 3.5 μm (Milford, Mass., USA). The mobile phase consisted of water and acetonitrile supplemented with 0.1% formic acid (v/v). The flow rate was 1.0 mL/min. The initial mobile phase was 20% acetonitrile and was ramped in a linear fashion to 50% acetonitrile in 0.4 min. From 0.4 to 1.5 min, the gradient was ramped to 98% acetonitrile, and then was held at […] until 8.0 min. Acetonitrile was reset to 20% in 1.5 min, and maintained until 10.0 min. The total run time was 10.0 min. The MS/MS detection was performed in ESI positive mode. […] The cell lysate was diluted with equal volume of acetonitrile. Aliquots of 50 μL diluted samples were added to 1.5 mL tubes, and 100 μL of acetonitrile containing internal standard (100 ng/mL tolbutamide) were added for protein precipitation. The mixture were vortexed and then centrifuged at 13000 rpm for 10 min. 70 μL of supernatant were mixed with 140 μL of H2O and the final solution were injected for LC/MS/MS analysis and IC50's and/or percent inhibitions calculated.

SMILES | pIC50 (K562 cells) | pIC50 [1]
O=C(N[C@H](CN1CCCC1)[C@H](O)c1ccc(OC2CC2)c(Cl)c1)C1=NOCc2cc(-c3ccc(F)cc3)ccc21 [Example 1, N-((1R,2R)-1-(3-chloro-4-cyclopropoxyphenyl)-1-hydroxy-3-(pyrrolidin-1-yl)propan-2-yl)-7-(4-fluorophenyl)-1H-benzo[d][1,2]oxazine-4-carboxamide] | ≥ 8.00 | > 8.00
O=C(N[C@H](CN1CCCC1)[C@H](O)c1ccc(OC2CC2)c(F)c1)C1=NOCc2cc(-c3ccc(F)cc3)ccc21 [Example 2, N-((1R,2R)-1-(4-cyclopropoxy-3-fluorophenyl)-1-hydroxy-3-(pyrrolidin-1-yl)propan-2-yl)-7-(4-fluorophenyl)-1H-benzo[d][1,2]oxazine-4-carboxamide] | ≥ 8.00 | > 8.00
O=C(N[C@H](CN1CCCC1)[C@H](O)c1cc(F)c2c(c1)OCCO2)C1=NOCc2cc(-c3ccc(F)cc3)ccc21 [Example 3, N-((1R,2R)-1-(8-fluoro-2,3-dihydrobenzo[b][1,4]dioxin-6-yl)-1-hydroxy-3-(pyrrolidin-1-yl)propan-2-yl)-7-(4-fluorophenyl)-1H-benzo[d][1,2]oxazine-4-carboxamide] | ≥ 8.00 | > 8.00
O=C(N[C@H](CN1CCCC1)[C@H](O)c1ccc(OC2CC2)cc1)C1=NOCc2cc(-c3ccc(F)cc3)ccc21 [Example 4, N-((1R,2R)-1-(4-cyclopropoxyphenyl)-1-hydroxy-3-(pyrrolidin-1-yl)propan-2-yl)-7-(4-fluorophenyl)-1H-benzo[d][1,2]oxazine-4-carboxamide] | ≥ 8.00 | 7.00 to 8.00
O=C(N[C@H](CN1CCC1)[C@H](O)c1ccc(OC2CC2)c(Cl)c1)C1=NOCc2cc(-c3ccc(F)cc3)ccc21 [Example 5, N-((1R,2R)-3-(azetidin-1-yl)-1-(3-chloro-4-cyclopropoxyphenyl)-1-hydroxypropan-2-yl)-7-(4-fluorophenyl)-1H-benzo[d][1,2]oxazine-4-carboxamide] | ≥ 8.00 | 7.00 to 8.00
O=C(N[C@H](CN1CCC1)[C@H](O)c1ccc(OC2CC2)cc1)C1=NOCc2cc(-c3ccc(F)cc3)ccc21 [Example 6, N-((1R,2R)-3-(azetidin-1-yl)-1-(4-cyclopropoxyphenyl)-1-hydroxypropan-2-yl)-7-(4-fluorophenyl)-1H-benzo[d][1,2]oxazine-4-carboxamide] | ≥ 8.00 | 7.00 to 8.00
O=C(N[C@H](CN1CCC1)[C@H](O)c1ccc(OC2CC2)c(F)c1)C1=NOCc2cc(-c3ccc(F)cc3)ccc21 [Example 7, N-((1R,2R)-3-(azetidin-1-yl)-1-(4-cyclopropoxy-3-fluorophenyl)-1-hydroxypropan-2-yl)-7-(4-fluorophenyl)-1H-benzo[d][1,2]oxazine-4-carboxamide] | ≥ 8.00 | > 8.00
O=C(N[C@H](CN1CCCC1)[C@H](O)c1ccc(OC2CC2)c(F)c1)C1=NOCc2cc(-c3ccc(Cl)s3)ccc21 [Example 8, 7-(5-chlorothiophen-2-yl)-N-((1R,2R)-1-(4-cyclopropoxy-3-fluorophenyl)-1-hydroxy-3-(pyrrolidin-1-yl)propan-2-yl)-1H-benzo[d][1,2]oxazine-4-carboxamide] | ≥ 8.00 | > 8.00
O=C(N[C@H](CN1CCC1)[C@H](O)c1ccc(OC2CC2)c(F)c1)C1=NOCc2cc(-c3ccc(Cl)s3)ccc21 [Example 9, N-((1R,2R)-3-(azetidin-1-yl)-1-(4-cyclopropoxy-3-fluorophenyl)-1-hydroxypropan-2-yl)-7-(5-chlorothiophen-2-yl)-1H-benzo[d][1,2]oxazine-4-carboxamide] | ≥ 8.00 | > 8.00
O=C(N[C@H](CN1CCCC1)[C@H](O)c1ccc(OC2CC2)c(Cl)c1)C1=NOCc2cc(-c3ccc(Cl)s3)ccc21 [Example 10, N-((1R,2R)-1-(3-chloro-4-cyclopropoxyphenyl)-1-hydroxy-3-(pyrrolidin-1-yl)propan-2-yl)-7-(5-chlorothiophen-2-yl)-1H-benzo[d][1,2]oxazine-4-carboxamide] | ≥ 8.00 | 7.00 to 8.00
O=C(N[C@H](CN1CCC1)[C@H](O)c1ccc(OC2CC2)cc1)C1=NOCc2cc(-c3ccc(Cl)s3)ccc21 [Example 11, N-((1R,2R)-3-(azetidin-1-yl)-1-(4-cyclopropoxyphenyl)-1-hydroxypropan-2-yl)-7-(5-chlorothiophen-2-yl)-1H-benzo[d][1,2]oxazine-4-carboxamide] | ≥ 8.00 | 7.00 to 8.00
O=C(N[C@H](CN1CCCC1)[C@H](O)c1ccc(OC2CC2)c(F)c1)C1=NOCc2c1sc1cc(Cl)ccc21 [Example 12, 7-chloro-N-((1R,2R)-1-(4-cyclopropoxy-3-fluorophenyl)-1-hydroxy-3-(pyrrolidin-1-yl)propan-2-yl)-1H-benzo[4,5]thieno[2,3-d][1,2]oxazine-4-carboxamide] | 7.00 to 8.00 | 7.00 to 8.00
O=C(N[C@H](CN1CCCC1)[C@H](O)c1ccc(OC2CC2)c(Cl)c1)C1=NOCc2c1sc1cc(Cl)ccc21 [Example 13, 7-chloro-N-((1R,2R)-1-(3-chloro-4-cyclopropoxyphenyl)-1-hydroxy-3-(pyrrolidin-1-yl)propan-2-yl)-1H-benzo[4,5]thieno[2,3-d][1,2]oxazine-4-carboxamide] | – | 7.00 to 8.00
O=C(N[C@H](CN1CCC1)[C@H](O)c1ccc(OC2CC2)c(F)c1)C1=NOCc2c1sc1cc(Cl)ccc21 [Example 15, N-((1R,2R)-3-(azetidin-1-yl)-1-(4-cyclopropoxy-3-fluorophenyl)-1-hydroxypropan-2-yl)-7-chloro-1H-benzo[4,5]thieno[2,3-d][1,2]oxazine-4-carboxamide] | – | 6.00 to 7.00
O=C(N[C@H](CN1CCC1)[C@H](O)c1ccc(OC2CC2)c(Cl)c1)C1=NOCc2c1sc1cc(Cl)ccc21 [Example 16, N-((1R,2R)-3-(azetidin-1-yl)-1-(3-chloro-4-cyclopropoxyphenyl)-1-hydroxypropan-2-yl)-7-chloro-1H-benzo[4,5]thieno[2,3-d][1,2]oxazine-4-carboxamide] | – | 6.00 to 7.00
CC1(C)ON=C(C(=O)N[C@H](CN2CCCC2)[C@H](O)c2ccc(OC3CC3)c(Cl)c2)c2ccc(-c3ccc(F)cc3)cc21 [Example 23, N-((1R,2R)-1-(3-chloro-4-cyclopropoxyphenyl)-1-hydroxy-3-(pyrrolidin-1-yl)propan-2-yl)-7-(4-fluorophenyl)-1,1-dimethyl-1H-benzo[d][1,2]oxazine-4-carboxamide] | – | 6.00 to 7.00
O=C(N[C@H](CN1CCC1)[C@H](O)c1ccc(OC2CC2)cc1)C1=NCCc2cc(-c3ccc(F)cc3)ccc21 [Example 40, N-((1R,2R)-3-(azetidin-1-yl)-1-(4-cyclopropoxyphenyl)-1-hydroxypropan-2-yl)-6-(4-fluorophenyl)-3,4-dihydroisoquinoline-1-carboxamide] | – | 7.00 to 8.00
CC1(C)Cc2cc(-c3ccc(F)cc3)ccc2C(C(=O)N[C@H](CN2CCCC2)[C@H](O)c2ccc(OC3CC3)c(Cl)c2)=N1 [Example 41, N-((1R,2R)-1-(3-chloro-4-cyclopropoxyphenyl)-1-hydroxy-3-(pyrrolidin-1-yl)propan-2-yl)-6-(4-fluorophenyl)-3,3-dimethyl-3,4-dihydroisoquinoline-1-carboxamide] | – | 6.00 to 7.00
O=C(N[C@H](CN1CCCC1)[C@H](O)c1ccc(OC2CC2)c(Cl)c1)C1OCCc2cc(-c3ccc(F)cc3)ccc21 (stereo partly drawn) [Example 42, N-((1R,2R)-1-(3-chloro-4-cyclopropoxyphenyl)-1-hydroxy-3-(pyrrolidin-1-yl)propan-2-yl)-6-(4-fluorophenyl)isochroman-1-carboxamide] | – | 6.00 to 7.00
O=C(N[C@H](CN1CCCC1)[C@H](O)c1ccc(OC2CC2)c(Cl)c1)C1OCCc2c1sc1cc(Cl)ccc21 (stereo partly drawn) [Example 43, 7-chloro-N-((1R,2R)-1-(3-chloro-4-cyclopropoxyphenyl)-1-hydroxy-3-(pyrrolidin-1-yl)propan-2-yl)-3,4-dihydro-1H-benzo[4,5]thieno[2,3-c]pyran-1-carboxamide] | – | 6.00 to 7.00
